Source: patent US8288375B2, “Fungicidal bicyclic pyrazoles” (E.I. du Pont de Nemours and Company, priority 2007, dated 2012)
Marks after values point to notes of the source that are not given here.

Tests used:
Type in all cases: in vivo
[1] = tested on: Erysiphe graminis f. sp. tritici; test: Test A: wheat powdery mildew, test suspension sprayed on wheat seedlings, disease rating; settings: 200 ppm test suspension, 100 = 100% disease control, 0 = no control; for pest or weed control at 200 ppm: Blumeria graminis, 192 h
[2] = tested on: Puccinia recondite f sp. tritici; test: Test B: wheat leaf rust, test suspension sprayed on wheat seedlings, disease rating; settings: for pest or weed control at 40 ppm: Puccinia, 192 h;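 as to all read-outs here: 200 ppm unless marked * meaning 40 ppm or ** meaning 10 ppm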
Fusarium graminearum = test: whole plant or invertebrate; settings: for pest or weed control at 40 ppm: Fusarium graminearum, in Triticum aestivum, 192 h, read-out: Test C disease control rating
Septoria nodorum = test: Test D: wheat glume blotch, test suspension sprayed on wheat seedlings, disease rating; settings: 200 ppm test suspension; for pest or weed control at 200 ppm: Parastagonospora nodorum, 216 h
Septoria tritici = test: Test E: wheat leaf blotch, test suspension sprayed on wheat seedlings, disease rating;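 also: 200 ppm unless marked * meaning 40 ppm or ** meaning 10 ppm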
[3] = tested on: Colletotrichum orbiculare; test: Test F: cucumber Colletotrichum anthracnose, test suspension sprayed on cucumber seedlings, disease rating
Alternaria solani = test: Test G: tomato early blight, test suspension sprayed on seedlings, disease rating;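 also: 200 ppm unless marked * meaning 40 ppm or ** meaning 10 ppm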
Botrytis cinerea = test: Test H: tomato Botrytis, test suspension sprayed on tomato seedlings, disease rating; settings: 200 ppm test suspension
Rhizoctonia oryzae = test: Test I: turf brown patch, test suspension sprayed on creeping bent grass seedlings, disease rating; settings: 200 ppm test suspension
Phytophthora infestans = test: whole plant or invertebrate
Pythium aphanidermatum = test: Test L: bluegrass pythium blight, test suspension sprayed on bluegrass seedlings, disease rating;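 also: 200 ppm unless marked * meaning 40 ppm or ** meaning 10 ppm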
[4] = Phytophthora infestans, in Solanum lycopersicum, 120 h, read-out: Test J disease control rating

SMILES	Test A disease control rating [1] [%]	Test B disease control rating ([2]; 200 ppm test suspension) [%]	Test D disease control rating (Septoria nodorum) [%]	Test E disease control rating (Septoria tritici; 200 ppm test suspension) [%]	Test F disease control rating ([3]; 200 ppm test suspension) [%]	Test G disease control rating (Alternaria solani; 40 ppm test suspension (*))	Test H disease control rating (Botrytis cinerea) [%]	Test I disease control rating (Rhizoctonia oryzae) [%]	Test B disease control rating ([2]; 40 ppm test suspension (*))	Test C disease control rating (Fusarium graminearum; 40 ppm test suspension (*))	Test E disease control rating (Septoria tritici; 40 ppm test suspension (*))	Test J disease control rating (Phytophthora infestans; 40 ppm test suspension (*))	Test L disease control rating (Pythium aphanidermatum; 40 ppm test suspension (*))	also measured
CC(CO)Nc1nccc(-c2c(-c3ccc(F)cc3)nn3c2CCCC3)n1 (stereo not drawn) [Compound 5, 2-[[4-[2-(4-fluorophenyl)-4,5,6,7-tetrahydropyrazolo[5,1-a]pyridin-3-yl]-2-pyrimidinyl]amino]-1-propanol]	96	100	97	97	99	98* %	99	0	–	–	–	–	–	Test C disease control rating (Fusarium graminearum; 200 ppm test suspension): 100%; Test J disease control rating (Phytophthora infestans; 200 ppm test suspension): 99%; Test L disease control rating (Pythium aphanidermatum; 200 ppm test suspension): 100%
c1ccc(-c2nn3c(c2-c2ccnc(NC4CC4)n2)CCCC3)cc1 [Compound 27, N-cyclopropyl-4-(4,5,6,7-tetrahydro-2-phenylpyrazolo[1,5-a]pyridin-3-yl)-2-pyrimidinamine]	–	–	–	–	–	–	–	–	–	–	–	–	–	pest or weed control at 200 ppm [1]: 96%; pest or weed control at 40 ppm ([2]; 40 ppm test suspension (*)): 95%; pest or weed control at 40 ppm (Fusarium graminearum): 99%; pest or weed control at 200 ppm (Septoria nodorum): 98%; pest or weed control at 200 ppm (Septoria tritici; Zymoseptoria tritici, 504 h, 200 ppm test suspension): 97%; pest or weed control at 10 ppm ([3]; Colletotrichum orbiculare, 144 h, 10 ppm test suspension (**)): 66%; pest or weed control at 10 ppm (Alternaria solani; Alternaria solani, 168 h, 10 ppm test suspension (**)): 95%; pest or weed control at 200 ppm (Phytophthora infestans; [4]): 97%; pest or weed control at 200 ppm (Pythium aphanidermatum; Pythium aphanidermatum, 120 h, 200 ppm test suspension): 98%
CC(=O)N1CCn2nc(-c3ccc(F)cc3)c(-c3ccnc(NC(C)C)n3)c2C1 [Compound 130]	86	–	97	–	0	58* %	34	0	92* %	0* %	97* %	100* %	100* %	–
CC(C)Nc1nccc(-c2c(-c3ccc(F)cc3)nn3c2CNCC3)n1.Cl [Compound 133]	0	–	0	–	98	0* %	0	0	19* %	42* %	0* %	73* %	99* %	–
CN1CCCc2c(-c3ccnc(NC4CC4)n3)c(-c3ccc(F)cc3)nn21 [Compound 135, N-cyclopropyl-4-[2-(4-fluorophenyl)-4,5,6,7-tetrahydro-7-methylpyrazolo[1,5-b]pyridazin-3-yl]-2-pyrimidinamine]	–	–	–	–	–	–	–	–	–	–	–	–	–	pest or weed control at 200 ppm [1]: 95%; pest or weed control at 40 ppm ([2]; 40 ppm test suspension (*)): 61%; pest or weed control at 40 ppm (Fusarium graminearum): 84%; pest or weed control at 200 ppm (Septoria nodorum): 89%; pest or weed control at 40 ppm (Septoria tritici; Zymoseptoria tritici, 504 h, 40 ppm test suspension (*)): 90%; pest or weed control at 200 ppm ([3]; Colletotrichum orbiculare, 144 h, 200 ppm test suspension): 99%; pest or weed control at 40 ppm (Alternaria solani; Alternaria solani, 168 h, 40 ppm test suspension (*)): 99%; pest or weed control at 200 ppm (Botrytis cinerea; Botrytis cinerea, 120 h): 70%; pest or weed control at 200 ppm (Rhizoctonia oryzae; Waitea circinata, in Agrostis stolonifera, 120 h): 0%; pest or weed control at 40 ppm (Phytophthora infestans; [4]): 70%
CC(=O)N1CCCc2c(-c3ccnc(NC4CCOCC4)n3)c(-c3ccc(F)cc3)nn21 [Compound 139]	73	–	99	–	–	99* %	0	40	90* %	95* %	29* %	93* %	100* %	–
CC(CN1C(=O)c2ccccc2C1=O)Nc1nccc(-c2c(-c3ccc(F)cc3)nn3c2CCCC3)n1 (stereo not drawn) [compound 71]	0	–	64	–	0	0* %	0	–	0* %	0* %	33* %	9* %	97* %	–
CC(CN(C)C)Nc1nccc(-c2c(-c3ccc(F)cc3)nn3c2CCCC3)n1 (stereo not drawn) [compound 77]	82	–	49	–	0	0* %	29	0	–	92* %	0* %	40* %	0* %	–
Fc1ccc(-c2nn3c(c2-c2ccnc(NCc4ccco4)n2)CCCC3)cc1 [compound 78]	58	–	69	–	0	0* %	0	0	–	99* %	60* %	17* %	0* %	–
Cc1ccc(CNc2nccc(-c3c(-c4ccc(F)cc4)nn4c3CCCC4)n2)o1 [compound 79]	76	–	69	–	0	0* %	0	0	–	99* %	93* %	0* %	0* %	–
Fc1ccc(-c2nn3c(c2-c2ccnc(NCC4CCOCC4)n2)CCCC3)cc1 [compound 80]	82	–	82	–	0	68* %	44	0	–	98* %	93* %	33* %	0* %	–
CC(C)Nc1nccc(-c2c(-c3ccc(F)cc3)nn3c2COCC3)n1.Cl [compound 128]	0	–	99	–	99	99* %	89	–	96* %	99* %	94* %	100* %	100* %	–
Fc1ccc(-c2nn3c(c2-c2ccnc(NC4CCOCC4)n2)COCC3)cc1 [compound 129]	0	–	99	–	–	95* %	84	53	98* %	100* %	81* %	95* %	100* %	–
CNc1nccc(-c2c(-c3ccccc3)nn3c2CCCC3)n1 [compound 142]	95	100	98	100	–	–	53	–	–	–	–	–	–	Test C disease control rating (Fusarium graminearum; 200 ppm test suspension): 97%; Test G disease control rating (Alternaria solani; 200 ppm test suspension): 0%
CCCNc1nccc(-c2c(-c3ccccc3)nn3c2CCCC3)n1 [compound 179]	75	100	99	100	–	–	–	89	–	–	–	–	–	Test C disease control rating (Fusarium graminearum; 200 ppm test suspension): 100%
Cc1cccc(-c2nn3c(c2-c2ccnc(NC4CC4)n2)CCCC3)c1 [compound 181]	97	100	100	100	–	–	94	–	–	–	–	–	–	Test C disease control rating (Fusarium graminearum; 200 ppm test suspension): 100%; Test G disease control rating (Alternaria solani; 200 ppm test suspension): 99%
CCCNc1nccc(-c2c(-c3ccccc3)nn3c2COCC3)n1 [compound 184]	61	99	90	100	–	–	80	–	–	–	–	–	–	Test C disease control rating (Fusarium graminearum; 200 ppm test suspension): 99%; Test G disease control rating (Alternaria solani; 200 ppm test suspension): 98%
CCCNc1nccc(-c2c(-c3cccc(C)c3)nn3c2CCCC3)n1 [compound 185]	74	97	99	97	–	–	99	–	–	–	–	–	–	Test G disease control rating (Alternaria solani; 200 ppm test suspension): 95%
CCNc1nccc(-c2c(-c3cccc(C)c3)nn3c2CCCC3)n1 [compound 186]	79	99	99	95	–	–	99	–	–	–	–	–	–	Test G disease control rating (Alternaria solani; 200 ppm test suspension): 99%
